Assay results reported in patent US20190070396A1 (priority 2017, published 2019).
Like-named read-outs stand apart in the source and are kept apart here.

Assays:
[1] = Beagle, dog, in vivo
in vivo = conditions: dog
[2] = dog, in vivo, 0.8 mg

CNC[C@H](O)c1ccc(O)c(O)c1 [epinephrine]
buccal increase over basal level as share of the increase demonstrated by benchmark intramuscular injection [1]: approximately 20%

C=CCN1CC[C@]23c4c5ccc(O)c4O[C@H]2C(=O)CC[C@@]3(O)[C@H]1C5 [naloxone]
AUC (in vivo; 0.8 mg): 8.33 ng·h/mL | Cmax (in vivo; 0.8 mg): 25 ng/mL | AUC (in vivo; 8 mg): 58.3 ng·h/mL | Cmax (in vivo; 8 mg): 52 ng/mL | Tmax (in vivo; 8 mg): 18 min | AUC (in vivo; im, 0.4 mg): 10 ng·h/mL | Cmax (in vivo; im, 0.4 mg): 9 ng/mL | Tmax (in vivo; im, 0.4 mg): 22 min | Tmax [2]: 15 min
